The text below walks through data of patent publication US20230190887A1, “TARGETING G3BP AGGREGATION TO PREVENT NEURODEGENERATION” (priority 2019, published 2023).

For test [1], the system named is E18 midbrain neurons. The test can be described thus: MPP+-induced neurite degeneration of midbrain neurons. It counts as cell-based, rat. To be noted: DIV7 E18 midbrain neurons, 100 μM MPP+ 16-18 hours, with 10 μM peptide. Here is the method:
To test whether the triggering disassembly of stress granules would be protective in Parkinson's and Alzheimer's disease, the inventors employed 1-methyl-4-phenylpyridinium (MPP+)-induced and amyloid β (Aβ)-mediated neurotoxicity models. Rat embryonic day 18 (E18) midbrain neurons cultured for 7 days were treated for 16-18 hours with 100 μM MPP+, see FIGS. 1A and B, while E18 cortical neurons were treated with 1 μM Aβ oligomer, see FIGS. 2A-2B, with or without 10 μM G3BP1 190-208 or 168-189 peptide. As a control, the inventors used non-treated neurons.
FIG. 1: Cell permeable G3BP1 190-208 peptide rescues MPP+-induced degeneration of midbrain neurons. (A) Representative images for NF-labeled (white) DIV7 E18 midbrain neurons. DIV7 midbrain cultures were treated with 100 μM MPP+ (ii) or control (i) and […] 190-208 G3BP1 peptide (iv) or 168-189 control peptide (iii) [scale bar=100 μm]. (B) Quantification of neurite degeneration in midbrain neurons in control or 100 μM MPP+-treated neurons after addition of 190-208 G3BP1 or 168-189 control peptide. […] (N≥95 over 3 cultures; by one-way ANOVA with Tukey HSD post-hoc).

In test [2] the test system is G3BP1 aggregates in E12.5 motor neurons. The test can be described thus: Endogenous G3BP1 aggregates in MPP+-treated motor neurons. It counts as cell-based, mouse. The conditions noted are these: MPP+ plus 10 μM peptide. Here is the method: Previous studies have shown that, exposure of midbrain neurons results in formation of stress granules. To test whether treatment of motor neurons with mitotoxin MPP+ results in the formation of stress granules the inventors stained the MPP+-treated neurons for G3BP1 protein.
(A) Quantification of mitotoxin/neurotoxin MPP+-induced degeneration of DIV7 E12.5 motor neuron neurites after exposure of cultures to 100 μM MPP+ and either 10 μM 190-208 G3BP1 or 168-189 control peptide. As controls, neurons treated with solvents were used. (B) Representative images of G3BP1 (green) and NF-labeled (red) E12.5 motor neurons under control or after treatment with 100 μM MPP+ [scale bar=10 μm]. (C) distribution of sizes of endogenous G3BP1 aggregate per 100 μm neurite is shown as indicated bins from motor neurons cultures as treated in (B). (N≥80 neurites over three repetitions; by one-way ANOVA with Tukey HSD post-hoc). […] (D) Endogenous G3BP1 aggregate sizes per 100 μm neurite indicated as bins for motor neurons either untreated or treated with MPP+ alone or with addition of 10 μM 190-208 G3BP1 or 168-189 control peptide. […] (N≥90 over 3 cultures; by one-way ANOVA with Tukey HSD post-hoc)

Test [3] concerns DRG neurons. Put plainly: Axon growth in dissociated DRG cultures. It counts as cell-based, rat. Here is the method:
Cell culture. For primary neuronal cultures, L4-5 DRG were harvested in Hybernate-A medium (BrainBits) and then dissociated as described. After centrifugation and washing in DMEM/F12 (Life Technologies), cells were resuspended in DMEM/F12, 1×N1 supplement (Sigma), 10% fetal bovine serum (Hyclone), and 10 μM cytosine arabinoside (Sigma). Dissociated DRGs were plated immediately on laminin/poly-L-lysine-coated coverslips or transfected (see below) and then plated on coated coverslips.
[…] Neurite outgrowth was assessed 24 h after addition of peptides. For the cortical cultures, 10 μM peptide was applied to the axonal compartment at 3 d in vitro (DIV) and axonal growth was assessed at 6 DIV. For iMotor neurons, 20 μM peptides were immediately added and neurite growth was assessed 24 h later.
For neurite outgrowth, images from 60 h DRG cultures were analyzed for neurite outgrowth using WIS-Neuromath. Axon morphology was visualized using GFP and/or NF immunofluorescence as described. Differentiated hiPSC neuron image acquisition and neurite length quantification was performed using Arrayscan XTI (Thermo Fisher).

Test [4] deals with E18 cortical neurons. The test can be described thus: Axon growth of cortical neurons in microfluidic devices. The class given is cell-based, rat. The conditions noted are these: 10 μM peptide applied to axonal compartment at 3 DIV, assessed at 6 DIV. Here is the method: For cortical neuron cultures, E18 cortices were dissected in Hibernate E (BrainBits) and dissociated using the Neural Tissue Dissociation kit (Miltenyi Biotec). For this, minced cortices were incubated in a pre-warmed enzyme mix at 37° C. for 15 min; tissues were then triturated and applied to a 40 μm cell strainer.
After washing and centrifugation, neurons were seeded at a density of 1×10^5 cells per poly-D-lysine-coated microfluidic device (Xona Microfluidics). NbActive-1 medium (BrainBits) supplemented with 100 U/ml of Penicillin-Streptomycin (Life Technologies), 2 mM L-glutamine (Life Technologies), and 1×N21 supplement (R&D Systems) was used as culture medium.
For peptide treatments, 10 μM Tat-fused peptides were added to dissociated DRG cultures at 2 or 12 h after plating. Neurite outgrowth was assessed 24 h after addition of peptides. For the cortical cultures, 10 μM peptide was applied to the axonal compartment at 3 d in vitro (DIV) and axonal growth was assessed at 6 DIV. For iMotor neurons, 20 μM peptides were immediately added and neurite growth was assessed 24 h later.

For test [5], the system named is axonal protein synthesis in DRG neurons. The test can be described thus: Puromycinylation assay of axonal protein synthesis. The class given is cell-based, rat. The conditions noted are these: compared to untreated and 168-189 peptide-treated cultures. Here is the method:
Puromycinylation assay. To visualize newly synthesized proteins in cultured neurons, the inventors used the Click-iT® Plus OPP Protein Synthesis Assay Kit per manufacturer's instructions (Invitrogen/Life Technologies). Briefly, 3 DIV cultures were incubated with 20 μM0-propargyl-puromycin (OPP) for 30 min at 37° C. OPP labeled proteins were detected by crosslinking with Alexa Fluor-594 picolyl azide molecule. Coverslips were then mounted with Prolong Gold Antifade (Invitrogen) and imaged with Leica DMI6000 epifluorescent microscope as above. ImageJ was used to quantify the Puromycinylation signals in distal axons and cell bodies.

The mark [6] stands for this setting: 10 μM Tat-fused peptide added to DRG cultures immediately after plating.

With “YGNKKNNNQNNN-VVEPEPEPEPEPEPEPVSE [G3BP1 190-208 peptide]”, the neurite degeneration result in test [1] (listed as 190-208 peptide) is recorded as “significant decrease in MPP+-induced degeneration”; in test [1] (listed as G3BP1 190-208), “prevented neurite degeneration”. For the same substance, the “size of endogenous G3BP1 aggregates per 100 μm neurite” value in test [2] is “decrease in the size of aggregates”; in test [2] (listed as 190-208 G3BP1 peptide) it was “decrease in the number of larger G3BP1 granules”. Further, the axon length entry in test [3] (setting [6]) is “increased axon length”; in test [3] (delayed application (peptide added at 12 h, assessed at 36 h), naive and preinjured DRG neurons) it was “significantly increased axon length”. In addition, the “number of neurites per neuron” value in test [3] (setting [6]) is on record as “increased the number of neurites per neuron”. The axon growth entry in test [4] was “significant increase in axon growth”. Moreover, the “puromycin incorporation in DRG axons (axonal protein synthesis)” value is recorded as “significantly increased puromycin incorporation” in test [5] and “significant increase in axonal protein synthesis” in test [5] (listed as 190-208 peptide).
